Target: Human TrkA Protein (Homo sapiens (Human), UniProt P04629)
Assay: Evaluation of Binding Activity for Human TrkA Protein (TrkA LanthaScreen Eu Kinase Binding Assay)
Conditions: TrkA enzyme, Kinase Tracer 236, TR-FRET, 60 minutes at room temperature
Method: (Pharmacological Experimental Example 1): Evaluation of Binding Activity for Human TrkA Protein
Measurement was carried out using TrkA LanthaScreen (registered trademark) Eu Kinase Binding Assay (ThermoFisher SCIENTIFIC). To a 384 well plate (Corning), 2.5 μL of the test compound having various concentrations and diluted with Kinase buffer (ThermoFisher SCIENTIFIC) and 2.5 μL of 15 nM TrkA enzyme (ThermoFisher SCIENTIFIC) were added. Moreover, […] Eu-anti-His Tag antibody (ThermoFisher SCIENTIFIC) and 5 μL of 30 nM Kinase (registered trademark) Tracer 236 (ThermoFisher SCIENTIFIC) were added, followed by reaction at room temperature for 60 minutes. After the reaction, the fluorescence intensity of Europium (Emission wavelength 615 nm) and TR-FRET (Emission wavelength 665 nm) with an excitation wavelength of 340 nm were measured with EnVision 2100 (PerkinElmer) to calculate the fluorescence ratio as the amount of the test compound and the TrkA enzyme bonded. The inhibitory activity (IC50 value) of each test compound was calculated with the fluorescence ratio of the well to which a solvent was added instead of the test compound being 0% and the fluorescence ratio of the well without addition of the TrkA protein being 100%.
In Table 1, […] mean Compounds 1 to 62 synthesized in accordance with Examples 1 to 62 described later.

Human TrkA Protein, sequence (P04629 33-796): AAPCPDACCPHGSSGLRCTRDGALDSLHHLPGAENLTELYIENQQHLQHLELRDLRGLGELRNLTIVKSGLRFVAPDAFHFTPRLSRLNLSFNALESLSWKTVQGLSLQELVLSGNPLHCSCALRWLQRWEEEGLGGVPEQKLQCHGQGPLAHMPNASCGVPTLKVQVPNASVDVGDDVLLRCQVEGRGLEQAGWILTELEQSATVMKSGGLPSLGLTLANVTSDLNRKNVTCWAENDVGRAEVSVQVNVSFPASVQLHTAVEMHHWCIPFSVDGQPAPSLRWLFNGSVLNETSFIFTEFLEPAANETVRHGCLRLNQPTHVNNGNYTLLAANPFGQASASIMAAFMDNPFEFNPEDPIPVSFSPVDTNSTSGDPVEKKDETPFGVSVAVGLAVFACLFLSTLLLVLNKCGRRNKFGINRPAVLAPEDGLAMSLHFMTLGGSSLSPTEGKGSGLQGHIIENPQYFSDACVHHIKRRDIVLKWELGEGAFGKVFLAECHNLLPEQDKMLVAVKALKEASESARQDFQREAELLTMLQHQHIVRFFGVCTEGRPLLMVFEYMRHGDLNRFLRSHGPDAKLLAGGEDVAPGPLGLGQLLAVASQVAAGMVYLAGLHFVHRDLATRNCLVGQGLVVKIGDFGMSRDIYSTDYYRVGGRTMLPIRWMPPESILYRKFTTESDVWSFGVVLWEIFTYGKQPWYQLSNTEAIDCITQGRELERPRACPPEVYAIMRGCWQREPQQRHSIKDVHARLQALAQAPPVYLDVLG

| Structure (SMILES) | IC50 |
| --- | --- |
| Cc1ncc(-c2nc(-c3ccccc3)c(NC(=O)N[C@@H]3c4ccccc4C(C)(C)C[C@H]3O)cc2C)cn1 (racemic) [Compound 3, rac-1-((1R,2R)-2-hydroxy-4,4-dimethyl-1,2,3,4-tetrahydronaphthalen-1-yl)-3-(5-methyl-6-(2-methylpyrimidin-5-yl)-2-phenylpyridin-3-yl)urea] | ≤ 50 nM |
| Cc1cc(NC(=O)N[C@@H]2c3ccccc3C(C)(C)C[C@H]2O)c(-c2ccccc2)nc1-c1ccc(O)nc1 (racemic) [Compound 6, rac-1-(6′-hydroxy-3-methyl-6-phenyl-[2,3′-bipyridin]-5-yl)-3-((1R,2R)-2-hydroxy-4,4-dimethyl-1,2,3,4-tetrahydronaphthalen-1-yl)urea] | ≤ 50 nM |
| Cc1cnc(-c2ccccc2)c(NC(=O)N[C@@H]2c3ccc(Br)cc3C(C)(C)C[C@H]2O)c1 (racemic) [Compound 22, rac-1-((1R,2R)-6-bromo-2-hydroxy-4,4-dimethyl-1,2,3,4-tetrahydronaphthalen-1-yl)-3-(5-methyl-2-phenylpyridin-3-yl)urea] | ≤ 50 nM |
| Cc1cc(NC(=O)N[C@@H]2c3ccc(Br)cc3C(C)(C)C[C@H]2O)c(-c2ccccc2)nc1C(N)=O (racemic) [Compound 23, rac-5-(3-((1R,2R)-6-bromo-2-hydroxy-4,4-dimethyl-1,2,3,4-tetrahydronaphthalen-1-yl)ureido)-3-methyl-6-phenylpicolinamide] | ≤ 50 nM |
| Cc1cnc(C2CCOCC2)c(NC(=O)N[C@@H]2c3ccccc3C(C)(C)C[C@H]2O)c1 (racemic) [Compound 26, rac-1-((1R,2R)-2-hydroxy-4,4-dimethyl-1,2,3,4-tetrahydronaphthalen-1-yl)-3-(5-methyl-2-(tetrahydro-2H-pyran-4-yl)pyridin-3-yl)urea] | ≤ 50 nM |
| Cc1ncc(-c2nc(C3CCOCC3)c(NC(=O)N[C@@H]3c4ccccc4C(C)(C)C[C@H]3O)cc2C)cn1 (racemic) [Compound 28, rac-1-((1R,2R)-2-hydroxy-4,4-dimethyl-1,2,3,4-tetrahydronaphthalen-1-yl)-3-(5-methyl-6-(2-methylpyrimidin-5-yl)-2-(tetrahydro-2H-pyran-4-yl)pyridin-3-yl)urea] | ≤ 50 nM |
| Cc1cc(NC(=O)N[C@@H]2c3ccccc3C(C)(C)C[C@H]2O)c(C2CCOCC2)nc1-c1cn[nH]c1 (racemic) [Compound 30, rac-1-((1R,2R)-2-hydroxy-4,4-dimethyl-1,2,3,4-tetrahydronaphthalen-1-yl)-3-(5-methyl-6-(1H-pyrazol-4-yl)-2-(tetrahydro-2H-pyran-4-yl)pyridin-3-yl)urea] | ≤ 50 nM |
| Cc1cc(NC(=O)N[C@@H]2c3ccccc3C(C)(C)C[C@H]2O)c(C2CCOCC2)nc1-c1ccc(O)nc1 (racemic) [Compound 31, rac-1-(6′-hydroxy-3-methyl-6-(tetrahydro-2H-pyran-4-yl)-[2,3′-bipyridin]-5-yl)-3-((1R,2R)-2-hydroxy-4,4-dimethyl-1,2,3,4-tetrahydronaphthalen-1-yl)urea] | ≤ 50 nM |
| CC1(C)C[C@@H](O)[C@H](NC(=O)Nc2cccnc2-c2ccccc2)c2cc(F)c(F)cc21 (racemic) [Compound 36, rac-1-((1R,2R)-6,7-difluoro-2-hydroxy-4,4-dimethyl-1,2,3,4-tetrahydronaphthalen-1-yl)-3-(2-phenylpyridin-3-yl)urea] | ≤ 50 nM |

More lines, now with the values ahead:

| IC50 | Structure (SMILES) |
| --- | --- |
| ≤ 50 nM | CC1(C)C[C@@H](O)[C@H](NC(=O)Nc2cccnc2-c2ccccc2)c2ccccc21 (racemic) [Compound 1, rac-1-((1R,2R)-2-hydroxy-4,4-dimethyl-1,2,3,4-tetrahydronaphthalen-1-yl)-3-(2-phenylpyridin-3-yl)urea] |
| ≤ 50 nM | Cc1cnc(-c2ccccc2)c(NC(=O)N[C@@H]2c3ccccc3C(C)(C)C[C@H]2O)c1 (racemic) [Compound 2, rac-1-((1R,2R)-2-hydroxy-4,4-dimethyl-1,2,3,4-tetrahydronaphthalen-1-yl)-3-(5-methyl-2-phenylpyridin-3-yl)urea] |
| ≤ 50 nM | Cc1cc(NC(=O)N[C@@H]2c3ccccc3C(C)(C)C[C@H]2O)c(-c2ccccc2)nc1-c1cnn(C)c1 (racemic) [Compound 4, rac-1-((1R,2R)-2-hydroxy-4,4-dimethyl-1,2,3,4-tetrahydronaphthalen-1-yl)-3-(5-methyl-6-(1-methyl-1H-pyrazol-4-yl)-2-phenylpyridin-3-yl)urea] |
| ≤ 50 nM | Cc1cc(NC(=O)N[C@@H]2c3ccccc3C(C)(C)C[C@H]2O)c(-c2ccccc2)nc1-c1cn[nH]c1 (racemic) [Compound 5, rac-1-((1R,2R)-2-hydroxy-4,4-dimethyl-1,2,3,4-tetrahydronaphthalen-1-yl)-3-(5-methyl-6-(1H-pyrazol-4-yl)-2-phenylpyridin-3-yl)urea] |
| ≤ 50 nM | Cc1cc(NC(=O)N[C@@H]2c3ccccc3C(C)(C)C[C@H]2O)c(-c2ccccc2)nc1C(N)=O (racemic) [Compound 24, rac-5-(3-((1R,2R)-2-hydroxy-4,4-dimethyl-1,2,3,4-tetrahydronaphthalen-1-yl)ureido)-3-methyl-6-phenylpicolinamide] |
| ≤ 50 nM | Cc1cc(NC(=O)N[C@@H]2c3ccccc3C(C)(C)C[C@H]2O)c(-c2ccccc2)nc1C(=O)NCC(C)(C)O (racemic) [Compound 25, rac-N-(2-hydroxy-2-methylpropyl)-5-(3-((1R,2R)-2-hydroxy-4,4-dimethyl-1,2,3,4-tetrahydronaphthalen-1-yl)ureido)-3-methyl-6-phenylpicolinamide] |
| 50 to 1000 nM | Cc1cc(NC(=O)N[C@@H]2c3ccccc3C(C)(C)C[C@H]2O)c(C2CCOCC2)nc1C(N)=O (racemic) [Compound 27, rac-5-(3-((1R,2R)-2-hydroxy-4,4-dimethyl-1,2,3,4-tetrahydronaphthalen-1-yl)ureido)-3-methyl-6-(tetrahydro-2H-pyran-4-yl)picolinamide] |
| ≤ 50 nM | Cc1cc(NC(=O)N[C@@H]2c3ccccc3C(C)(C)C[C@H]2O)c(C2CCOCC2)nc1-c1cnn(C)c1 (racemic) [Compound 29, rac-1-((1R,2R)-2-hydroxy-4,4-dimethyl-1,2,3,4-tetrahydronaphthalen-1-yl)-3-(5-methyl-6-(1-methyl-1H-pyrazol-4-yl)-2-(tetrahydro-2H-pyran-4-yl)pyridin-3-yl)urea] |
| ≤ 50 nM | Cc1cnc(-c2ccccc2)c(NC(=O)N[C@@H]2c3cc(Br)ccc3C(C)(C)C[C@H]2O)c1 (racemic) [Compound 32, rac-1-((1R,2R)-7-bromo-2-hydroxy-4,4-dimethyl-1,2,3,4-tetrahydronaphthalen-1-yl)-3-(5-methyl-2-phenylpyridin-3-yl)urea] |
| ≤ 50 nM | COCc1ccc2c(c1)[C@@H](NC(=O)Nc1cc(C)cnc1C1CCOCC1)[C@H](O)CC2(C)C (racemic) [Compound 33, rac-1-((1R,2R)-2-hydroxy-7-(methoxymethyl)-4,4-dimethyl-1,2,3,4-tetrahydronaphthalen-1-yl)-3-(5-methyl-2-(tetrahydro-2H-pyran-4-yl)pyridin-3-yl)urea] |
| ≤ 50 nM | Cc1ncc(-c2nc(-c3ccccc3)c(NC(=O)N[C@@H]3c4cc(F)ccc4C(C)(C)C[C@H]3O)cc2C)cn1 (racemic) [Compound 34a] |
| ≤ 50 nM | Cc1ncc(-c2nc(-c3ccccc3)c(NC(=O)N[C@@H]3c4ccc(F)cc4C(C)(C)C[C@H]3O)cc2C)cn1 (racemic) [Compound 35a] |

— patent US10399945B2, “Tetrahydronaphthyl urea derivative” (MOCHIDA PHARMACEUTICAL CO., LTD., priority 2017, dated 2019)
